Among the data in US10793557B2, “Sting agonist compounds” (Merck Sharp & Dohme Corp., priority 2018, dated 2020) are EC50, activation and inhibition values, retold here.

Assay [1] addresses T1, full-length HAQ STING (Homo sapiens, UniProt Q86WV6, G230A/H232R/R293Q/R71H).
T1 construct: AviTag (after GG linker) (C); HRV3C cleavage site (after GS linker) (C); HIS8 (C); made in house; host or cells: Trichoplusia ni (Hi-Five) insect cells infected with baculovirus (virus generated and amplified in Sf21 cells); used as a washed membrane preparation
The assay is described as follows: 3H-cGAMP filtration binding assay (HAQ STING). Particulars: competition with tritiated cGAMP, HAQ STING membrane. The text has this:
The ability of compounds to bind STING is quantified by the ability to compete with tritiated cGAMP ligand for human STING receptor membrane using a radioactive filter-binding assay. The binding assay employs STING receptor obtained from Hi-Five cell membranes overexpressing full-length HAQ STING prepared in-house and tritiated cGAMP ligand also purified in-house.
The ability of compounds to bind STING is quantified by their ability to compete with tritiated cGAMP ligand for human STING receptor membrane using a radioactive filter-binding assay. The binding assay employs STING receptor obtained from Trichoplusia ni cell membranes (T. ni; Expression Systems, cat #94-002F, www.expressionsystems.com) overexpressing full-length HAQ STING and tritiated cGAMP ligand.
The basic HAQ STING filtration assay protocol is as follows:
The compounds were serially titrated by the Hamilton STARPlus CORE in a 96-well plate (Greiner, #651201) using a 1:3 ten-point dose response format. After compound preparation, a 2.2 ug/ml working concentration of STING membrane (SEQ. ID. No. 1) was prepared by diluting concentrated membrane into assay buffer (1×PBS; Invitrogen # SH30028.02) and douncing 7× using a manual tissue homogenizer (Wheaton, #357546). 148 uL of prepared membrane was then manually added to each well of a 96-well deep-well polypropylene plate (Fisher Scientific, #12-566-121). Following membrane addition, 2 uL of either titrated test compound, DMSO control (Sigma #276855), or cold cGAMP control was added to the appropriate wells using a BIOMEK FX. Compound and membrane then preincubated for 60 min at RT to allow compound binding to equilibrate. Following equilibration, 8 nM of [^3H]c-GAMP ligand was prepared by diluting into assay buffer, and 50 uL of this working stock was then manually added to each well of the assay plate. Plates were then incubated at RT for 60 min, and the contents of each assay plate were then filtered through a 96-well GF/B filter plate (PerkinElmer, #6005250) using a TOMTEC MACH III Cell Harvester equipped with 20 mM HEPES buffer (Fisher Scientific, # BP299500). The filter plates were then dried at 55° C. for 30 min using a pressurized oven before 30 uL of ULTIMA GOLD F scintillate was added to each well. Tritium levels for each reaction well were then measured using a PerkinElmer TopCount plate reader.
(§1) After normalization to controls, the percent activity for each compound concentration was calculated by measuring the amount of remaining radioactivity. The plot of percent activity versus the log of compound concentration was fit with a 4-parameter dose response equation to calculate EC50 values.

Assay [2] has as its target T2, full-length WT STING (Homo sapiens, UniProt Q86WV6, H232R).
T2 construct: AviTag (after gg linker) (C); HRV3C cleavage site (after gs linker) (C); HIS8 (C); made in house; host or cells: Trichoplusia ni (Hi-Five) insect cells infected with baculovirus (virus generated and amplified in Sf21 cells); used as a washed membrane preparation
The assay is described as follows: 3H-cGAMP filtration binding assay (WT STING). Particulars: for EC50: competition with tritiated cGAMP, WT STING membrane. The protocol:
The ability of compounds to bind STING is quantified by their ability to compete with tritiated cGAMP ligand for human STING receptor membrane using a radioactive filter-binding assay. The binding assay employs STING receptor obtained from Trichoplusia ni cell membranes (T. ni; Expression Systems, cat #94-002F, www.expressionsystems.com) overexpressing full-length WT STING and tritiated cGAMP ligand.
The basic WT STING filtration assay protocol is as follows:
16 nM of [^3H] c-GAMP ligand was prepared by diluting into assay buffer, and 50 uL of this working stock was manually added to each well of the assay plate. After ligand addition, 2 uL of either titrated test compound, DMSO control (Sigma #276855), or cold cGAMP control was added to the appropriate wells using a BIOMEK FX. The serially titrated compound was prepared on a Hamilton STARPlus CORE in a 96-well plate (Greiner, #651201) using a 1:3 ten-point dose response format. Following compound addition, a 2.2 ug/ml working concentration of STING membrane (SEQ. ID. No. 3) was prepared by diluting concentrated membrane into assay buffer (1×PBS; Invitrogen # SH30028.02) and douncing 7× using a manual tissue homogenizer (Wheaton, #357546). 148 uL of this prepared membrane was then manually added to each well of a 96-well deep-well polypropylene plate (Fisher Scientific, #12-566-121). Compound, ligand, and membrane then incubated for 60 min at RT before the contents of each assay plate were filtered through a 96-well GF/B filter plate (PerkinElmer, #6005250) using a TOMTEC MACH III Cell Harvester equipped with 20 mM HEPES buffer (Fisher Scientific, # BP299500). The filter plates were then dried at 55° C. for 30 min using a pressurized VWR oven before 30 uL of ULTIMA GOLD F scintillate was added to each well. Tritium levels for each reaction well were then measured using a PerkinElmer TopCount plate reader.
as §1

Assay [3] relates to secretion of interferon-beta from THP1 cells. Kind of assay: IFN-β secretion in THP1 cell culture (5 h). The format is cell-based. Particulars: Homo sapiens, THP-1, 5 h, compound at 30 μM, 30 uM cGAMP = 100%, read-out: % Effect at 30 μM relative to 2′3′-cGAMP. As to the method:
The ability of compounds to stimulate the secretion of interferon-beta from THP1 cells was measured using a human IFN-β AlphaLISA kit (Perkin Elmer, Cat. No. AL265F). The basic protocol is as follows:
A Labcyte Echo 550 acoustic dispenser was used to transfer 120 nL of compound dissolved in DMSO into the wells of an empty, sterile 384-well microplate, (Corning, Cat. No. 3712). THP1 cells (American Type Culture Collection, Cat. No. TIB202) previously frozen in Recovery Medium (Life Technologies, Cat. No. 12648-010) were thawed and immediately diluted 10-fold into 37° C. assay medium (RPMI 1640+L-Glutamine & phenol red, Life Technologies, Cat. No. 11875-085; 0.5% heat inactivated fetal bovine serum, Sigma Aldrich, Cat. No. F4135; 1 mM Sodium Pyruvate, Life Technologies, Cat. No. 11360-070; 1× non-essential amino acids; Life Technologies, Cat. No. 11140-050). The cell viability and count was ascertained using a Beckman Coulter V-Cell XR cell counter. The cells suspension was centrifuged at 200×g for 5 min at RT. Cells were resuspended to a density of 0.8×10^6/mL in 37° C. assay medium. Subsequent liquid transfers were performed using either a Matrix electronic multichannel pipette or an Agilent Bravo Automated Liquid Handling Platform.
The assay was started by dispensing 40 μL of the previously prepared cell suspension into the wells of the plate containing compounds. After 5 h incubation at 37° C., 5% CO2 in a humidified atmosphere, the plate of cells and compounds was centrifuged at 200×g for 5 min at RT. From each well, 5 μL of supernatant was transferred into corresponding wells of a white 384-well plate (Perkin Elmer, Cat. No. 6005620). To these supernatant-containing wells was added 10 μL of 5× Anti-Analyte Acceptor beads (50 μg/mL of AlphaLISA HiBlock Buffer) and incubated for 30 min at RT while shaking on an orbital plate shaker. To each well was added 10 μL of 5× Biotinylated Antibody Anti-analyte (5 nM in AlphaLISA HiBlock Buffer) and incubated on an orbital plate shaker for 60 min at RT or overnight at 4° C. To each well was added 25 μL of 2× SA-Donor beads (80 μg/mL in AlphaLISA HiBlock Buffer) and incubated for 30-45 min at RT in the dark while shaking on an orbital plate shaker. The plate was then read on a Perkin Elmer Envision (λex=680 nm, […]). The percent effect of the AlphaLISA signal at each compound concentration was calculated based on 30 uM cGAMP positive controls and 0.3% DMSO negative controls. The plot of percent effect versus the log of compound concentration was fit with a 4-parameter concentration response equation to calculate EC50 values. The test compounds were tested at concentrations 30000, 10000, 3333, 1111, 370.4, 123.4, 41.2, 13.7, 4.6, and 1.5 nM with 0.3% residual DMSO. The control compound, cGAMP was tested at concentrations 100000, 33333, 11111, 3704, 1235, 412, 137, 46, and 15 nM with 0.3% residual DMSO.
Compounds of the disclosure were evaluated for IFN-β secretion in THP1 cell culture as described above. The following table tabulates the biological data for these compounds as percent activation relative to 2′3′-cGAMP at the 30 µM concentration.

T2 sequence (Q86WV6 with tags, fused parts or gaps H232R): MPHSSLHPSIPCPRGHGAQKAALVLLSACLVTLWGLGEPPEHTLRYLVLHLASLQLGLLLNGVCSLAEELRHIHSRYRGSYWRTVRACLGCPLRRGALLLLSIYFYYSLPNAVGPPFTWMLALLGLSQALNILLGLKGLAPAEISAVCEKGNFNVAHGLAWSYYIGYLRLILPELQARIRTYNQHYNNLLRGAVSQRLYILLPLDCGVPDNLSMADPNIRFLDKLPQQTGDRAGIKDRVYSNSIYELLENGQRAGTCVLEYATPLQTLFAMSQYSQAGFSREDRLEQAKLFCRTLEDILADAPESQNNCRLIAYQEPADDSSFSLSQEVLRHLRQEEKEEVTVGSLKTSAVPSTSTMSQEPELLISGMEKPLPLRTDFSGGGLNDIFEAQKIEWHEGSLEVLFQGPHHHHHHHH
T1 sequence (Q86WV6 with tags, fused parts or gaps R71H/G230A/H232R/R293Q): as the sequence (Q86WV6 with tags, fused parts or gaps H232R) above, with R71H, G230A, R293Q counted along it

The EC50 is the midpoint of the concentration-response curve. Consider `COc1cc2sc(C(=O)CCC(=O)O)cc2c(F)c1OCCCOc1c(OC)cc2sc(C(=O)[C@@H]3C[C@H]3C(=O)O)cc2c1F` (relative stereo) [Example 88, trans-2-(5-(3-((2-(3-carboxypropanoyl)-4-fluoro-6-methoxybenzo[b]thiophen-5-yl)oxy)propoxy)-4-fluoro-6-methoxybenzo[b]thiophene-2-carbonyl)cyclopropane carboxylic acid], for which the EC50 in assay [1] was 3 nM; in assay [2], 109 nM. The activation at 30 µM in assay [3] turned out to be 152%.
Take `COc1cc2sc(CCC(C)(C)C(=O)O)cc2c(F)c1OCCCOc1c(OC)cc2sc(C(=O)[C@@H]3CC[C@H]3C(=O)O)cc2c1F` (relative stereo) [Example 141, trans-2-(5-(3-((2-(3-carboxy-3-methylbutyl)-4-fluoro-6-methoxybenzo[b]thiophen-5-yl)oxy)propoxy)-4-fluoro-6-methoxybenzo[b]thiophene-2-carbonyl)cyclobutane-1-carboxylic acid]: the EC50 was 24 nM in assay [1] and 219 nM in assay [2]. Besides, in assay [3], the activation at 30 µM turned out to be 143%.
On to `COc1cc2sc(C(=O)C[C@H](C)C(=O)O)cc2c(F)c1OCCCOc1cc2sc(C(=O)[C@@H]3CC[C@H]3C(=O)O)cc2c(F)c1OC` (single isomer, unassigned) [Example 96], for which the EC50 is 18 nM in assay [1] and 628 nM in assay [2]. Also, in assay [3], the activation at 30 µM is 43%.
The term inhibition denotes the percentage by which the read-out fell short of the control. A higher inhibition goes with a strong effect. Take `COc1cc2sc(C(=O)CCC(=O)O)cc2c(F)c1OCCCCCOc1c(OC)cc2sc(C(=O)[C@@H]3CC[C@H]3C(=O)O)cc2c1F` (stereo in doubt) [Example 119, 2-(5-((5-((2-(3-carboxypropanoyl)-4-fluoro-6-methoxybenzo[b]thiophen-5-yl)oxy)pentyl)oxy)-4-fluoro-6-methoxybenzo[b]thiophene-2-carbonyl)cyclo-butanecarboxylic acid]: in assay [1], the EC50 amounted to 1800 nM. Besides, the inhibition at 20 µM in assay [2] (at 20,000 nM compound) was determined as 32%. The activation at 30 µM in assay [3] is 13%.
Regarding `COc1cc2sc(C(=O)C[C@H](C)C(=O)O)cc2cc1CCCCc1cc2cc(C(=O)C[C@H](C)C(=O)O)sc2cc1OC` [Example 1, (2S,2′S)-4,4′-[butane-1,4-diylbis(6-methoxy-1-benzothiene-5,2-diyl)]bis(2-methyl-4-oxobutanoic acid)], the figures for the EC50 in assay [1] and in assay [2] were 6 nM and 117 nM, respectively. In addition, the activation at 30 µM in assay [3] is 26%.
In the case of `COc1cc2sc(C(=O)C[C@H](C)C(=O)O)cc2cc1CCCc1cc2cc(C(=O)C[C@H](C)C(=O)O)sc2cc1OC` [Example 2, (2S,2′S)-4,4′-[propane-1,3-diylbis(6-methoxy-1-benzothiene-5,2-diyl)]bis(2-methyl-4-oxobutanoic acid)], the EC50 in assay [1] stood at 7 nM; in assay [2] it was 14 nM. Besides, the activation at 30 µM in assay [3] was 192%.
For `COc1cc2sc(C(=O)CCC(=O)O)cc2cc1CCCOc1nc2cc(C(=O)C[C@H](C)C(=O)O)sc2cc1OC` [Example 3, (S)-4-(5-(3-(2-(3-carboxypropanoyl)-6-methoxybenzo[b]thiophen-5-yl)propoxy)-6-methoxythieno[3,2-b]pyridin-2-yl)-2-methyl-4-oxobutanoic acid], the EC50 in assay [1] worked out at 114 nM; in assay [2] it was 273 nM. Besides, in assay [3], the activation at 30 µM was 151%.
The corresponding values for `COc1cc2sc(C(=O)CCC(=O)O)cc2nc1OCCCc1ccc2sc(C(=O)CCC(=O)O)cc2c1` [Example 4, 4-(5-(3-((2-(3-carboxypropanoyl)-6-methoxythieno [3,2-b]pyridin-5-yl)oxy)propyl)benzo[b]thiophen-2-yl)-4-oxobutanoic acid] are 6 nM, 33 nM and 93%.
In the case of `COc1cc2sc(C(=O)CCC(=O)O)cc2cc1CCCOc1cc2nc(C(=O)CCC(=O)O)sc2cc1OC` [Example 5, 4-(5-(3-(2-(3-carboxypropanoyl)-6-methoxybenzo [b]thiophen-5-yl)propoxy)-6-methoxybenzo[d]thiazol-2-yl)-4-oxobutanoic acid], the EC50 was determined as 84 nM in assay [1] and 381 nM in assay [2]. Besides, in assay [3], the activation at 30 µM is 96%.
